Source: US10155756B2, “Pyrazolo[1,5-A]pyridine compounds and use thereof” (GUANGZHOU INSTITUTES OF BIOMEDICINE AND HEALTH, CHINESE …, priority 2014, dated 2018)
≈ marks a conversion by molar mass, not a printed value.

System: self-luminescent tuberculosis
Test: microbe, parasite or virus in culture
Format: cell-based
Details: Mycobacterium tuberculosis, 72 h; read-out: MIClux

Compound | MIC [µg/mL]
CCc1nn2ccc(Cl)cc2c1C(=O)NCc1ccc(C(=O)OC)cc1 [TJ064814, 4-((5-chloro-2-ethylpyrazolo [1,5-a]pyridine-3-carboxamide)methyl) methyl benzoate] | 1 to 10 (≈ 2.69 to 26.9 µM)
CCc1nn2ccc(Cl)cc2c1C(=O)Nc1ccc(N2CCC(c3ccc(OC(F)(F)F)cc3)CC2)cc1 [TJ064819, 5-chloro-2-ethyl-N-(4-(4-(4-(trifluoromethoxy)phenyl)piperidine-1-yl)phenyl) pyrazolo [1,5-a] pyridine-3-carboxamide] | > 10
Cc1nn2c(C)cccc2c1C(=O)NCc1ccc(N2CCC(c3ccc(OC(F)(F)F)cc3)CC2)cc1 [TJ064851, 2,7-dimethyl-N-(4-(4-(4-(trifluoromethoxy)phenyl)piperidine-1-yl)benzyl) pyrazolo[1,5-a] pyridine-3-carboxamide] | 1 to 10 (≈ 1.91 to 19.1 µM)
Cc1ccc2c(C(=O)NCc3ccc(N4CCC(c5ccc(OC(F)(F)F)cc5)CC4)cc3)c(C)nn2c1 [TJ064854, 2,6-dimethyl-N-(4-(4-(4-(trifluoromethoxy)phenyl)piperidine-1-yl)benzyl) pyrazolo[1,5-a] pyridine-3-carboxamide] | < 1
Cc1nn2cccc(C)c2c1C(=O)NCc1ccc(N2CCC(c3ccc(OC(F)(F)F)cc3)CC2)cc1 [TJ064872, 2,4-dimethyl-N-(4-(4-(4-(trifluoromethoxy)phenyl)piperidine-1-yl)benzyl) pyrazolo[1,5-a] pyridine-3-carboxamide] | > 10
CCc1nn2ccc(OC)cc2c1C(=O)NCc1ccc(N2CCC(c3ccc(OC(F)(F)F)cc3)CC2)cc1 [TJ064889, 5-methoxy-2-ethyl-N-(4-(4-(4-(trifluoromethoxy)phenyl)piperidine-1-substituted)benzyl) pyrazolo[1,5-a] pyridine-3-carboxamide] | < 1
CCc1nn2ccc(Cl)cc2c1C(=O)NCc1cn(-c2ccc(OC(F)(F)F)cc2)nn1 [TJ064983] | > 10
CCc1nn2ccc(Cl)cc2c1C(=O)N(C)Cc1ccc(N2CCC(c3ccc(OC(F)(F)F)cc3)CC2)cc1 [TJ064985] | 1 to 10 (≈ 1.75 to 17.5 µM)
CCc1nn2ccc(Cl)cc2c1C(=O)NC(C)(C)c1ccc(N2CCC(c3ccc(OC(F)(F)F)cc3)CC2)cc1 [TJ064987, 5-chloro-2-ethyl-N-(2-(4-(4-(4-(trifluoromethoxy)phenyl)piperidine-1-yl)phenyl)propane-2-substituted) pyrazolo [1,5-a] pyridine-3-carboxamide] | > 10
Cc1nn2ccc(C(F)(F)F)cc2c1C(=O)NCc1ccc(N2CCC(c3ccc(OC(F)(F)F)cc3)CC2)cc1 [TJ064995, 5-trifluoromethyl-2-methyl-N-(4-(4-(4-(trifluoromethoxy)phenyl)piperidine-1-yl)benzyl) pyrazolo [1,5-a] pyridine-3-carboxamide] | 1 to 10 (≈ 1.73 to 17.3 µM)
O=C(NCc1ccc(N2CCC(c3ccc(OC(F)(F)F)cc3)CC2)cc1)c1cnn2ccc(Cl)cc12 [TJ170371, 5-chloro-N-(4-(4-(4-(trifluoromethoxy)phenyl)piperidine-1-yl)benzyl) pyrazolo [1,5-a] pyridine-3-carboxamide] | 1 to 10 (≈ 1.89 to 18.9 µM)
O=C(NCc1ccc(N2CCC(c3ccc(OC(F)(F)F)cc3)CC2)cc1)c1c(-c2ccccc2)nn2ccc(Cl)cc12 [TJ170386, 5-chloro-2-phenyl-N-(4-(4-(4-(trifluoromethoxy)phenyl)piperidine-1-yl)benzyl) pyrazolo [1,5-a] pyridine-3-carboxamide] | > 10
Cc1ccn2nc(C)c(C(=O)NCc3cn(-c4ccc(OC(F)(F)F)cc4)nn3)c2c1 [TJ830003] | > 10
Cc1nn2ccc(Br)cc2c1C(=O)NCc1ccc(N2CCC(c3ccc(OC(F)(F)F)cc3)CC2)cc1 [TJ830008, 5-bromo-2-methyl-N-(4-(4-(4-(trifluoromethoxy)phenyl)piperidine-1-yl)benzyl) pyrazolo [1,5-a] pyridine-3-carboxamide] | < 1
Cc1nn2ccc(-c3ccccc3)cc2c1C(=O)NCc1ccc(N2CCC(c3ccc(OC(F)(F)F)cc3)CC2)cc1 [TJ830012, 5-phenyl-2-methyl-N-(4-(4-(4-(trifluoromethoxy)phenyl)piperidine-1-yl)benzyl) pyrazolo [1,5-a] pyridine-3-carboxamide] | > 10
Cc1ccn2nc(C)c(C(=O)NCc3ccc(-c4ccc(OC(F)(F)F)cc4)nc3)c2c1 [TJ830025, 2,5-dimethyl-N-((6-(4-(trifluoromethoxy)phenyl)pyridine-3-yl)methyl) pyrazolo [1,5-a] pyridine-3-carboxamide] | < 1
CCc1nn2ccc(Cl)cc2c1C(=O)NCc1ccc(-c2ccc(OC(F)(F)F)cc2)nc1 [TJ830028, 5-chloro-2-ethyl-N-((6-(4-(trifluoromethoxy)phenyl)pyridine-3-yl)methyl) pyrazolo [1,5-a] pyridine-3-carboxamide] | < 1
COc1ccn2nc(C)c(C(=O)NCc3ccc(N4CCC(c5ccc(OC(F)(F)F)cc5)CC4)cc3)c2c1 [TJ830047, 5-methoxy-2-methyl-N-(4-(4-(4-(trifluoromethoxy)phenyl)piperidine-1-yl)benzyl) pyrazolo [1,5-a] pyridine-3-carboxamide] | < 1
Cc1nn2ccccc2c1C(=O)NCc1ccc(C(F)(F)F)cc1 [TJ830069] | 1 to 10 (≈ 3 to 30 µM)

Compound | MIC [µg/mL]
CCc1nn2ccc(Cl)cc2c1C(=O)NC(C)c1ccc(N2CCC(c3ccc(OC(F)(F)F)cc3)CC2)cc1 (stereo not shown) [TJ830070, 5-chloro-2-ethyl-N-(1-(4-(4-(4-(trifluoromethoxy)phenyl)piperidine-1-yl)phenyl)ethanol) pyrazolo [1,5-a] pyridine-3-carboxamide] | > 10
Cc1ccn2nc(C)c(C(=O)NCc3ccc(C(F)(F)F)cc3)c2c1 [TJ830072] | < 1
Cc1nn2ccc(C(C)C)cc2c1C(=O)NCc1ccc(N2CCC(c3ccc(OC(F)(F)F)cc3)CC2)cc1 [TJ830073, 5-isopropyl-2-methyl-N-(4-(4-(4-(trifluoromethoxy)phenyl)piperidine-1-yl)benzyl) pyrazolo [1,5-a] pyridine-3-carboxamide] | 1 to 10 (≈ 1.82 to 18.2 µM)
Cc1nn2ccc(C(C)(C)C)cc2c1C(=O)NCc1ccc(N2CCC(c3ccc(OC(F)(F)F)cc3)CC2)cc1 [TJ830075, 5-tert-Butyl-2-methyl-N-(4-(4-(4-(trifluoromethoxy)phenyl)piperidine-1-substituted)benzyl) pyrazolo [1,5-a] pyridine-3-carboxamide] | > 10
CCc1ccn2nc(C)c(C(=O)NCc3ccc(N4CCC(c5ccc(OC(F)(F)F)cc5)CC4)cc3)c2c1 [TJ830082, 5-ethyl-2-methyl-N-(4-(4-(4-(trifluoromethoxy)phenyl)piperidine-1-substituted)benzyl) pyrazolo [1,5-a] pyridine-3-carboxamide] | < 1
CCc1nn2ccc(C)cc2c1C(=O)NCc1ccc(N2CCC(c3ccc(OC(F)(F)F)cc3)CC2)cc1 [TJ830102, 5-methyl-2-ethyl-N-(4-(4-(4-(trifluoromethoxy)phenyl)piperidine-1-substituted)benzyl) pyrazolo [1,5-a] pyridine-3-carboxamide] | < 1
CCOc1ccn2nc(C)c(C(=O)NCc3ccc(N4CCC(c5ccc(OC(F)(F)F)cc5)CC4)cc3)c2c1 [TJ830108, 5-methyl-2-ethoxy-N-(4-(4-(4-(trifluoromethoxy)phenyl)piperidine-1-substituted)benzyl) pyrazolo [1,5-a] pyridine-3-carboxamide] | < 1
CCc1nn2ccc(Cl)cc2c1C(=O)NCCc1ccc(N2CCC(c3ccc(OC(F)(F)F)cc3)CC2)cc1 [TJ830128, 5-chloro-2-ethyl-N-(4-(4-(4-(trifluoromethoxy)phenyl)piperidine-1-yl)phenethyl) pyrazolo [1,5-a] pyridine-3-carboxamide] | 1 to 10 (≈ 1.75 to 17.5 µM)
Cc1ccn2nc(C)c(C(=O)NCc3ccc(-c4ccc(OC(F)(F)F)cc4)s3)c2c1 [TJ830132, 2,5-dimethyl-N-((5-(4-(trifluoromethoxy)phenyl)thiophene-2-yl)methyl) pyrazolo [1,5-a] pyridine-3-carboxamide] | < 1
Cc1ccn2nc(C)c(C(=O)NCc3ccc(-c4ccc(OC(F)(F)F)cc4)cn3)c2c1 [TJ830133, 2,5-dimethyl-N-((5-(4-(trifluoromethoxy)phenyl)pyridine-2-yl)methyl) pyrazolo [1,5-a] pyridine-3-carboxamide] | < 1
CCCc1nn2ccc(Cl)cc2c1C(=O)NCc1ccc(N2CCC(c3ccc(OC(F)(F)F)cc3)CC2)cc1 [TJ830134] | < 1
Cc1ccn2nc(C)c(C(=O)NCc3ccc(C(C)(C)C)cc3)c2c1 [TJ830135, N-(4-(tert-butyl)benzyl)-2,5-dimethylpyrazolo [1,5-a] pyridine-3-carboxamide] | < 1
Cc1ccn2nc(C)c(C(=O)NCc3ccc(N(C)C)cc3)c2c1 [TJ830136, N-(4-(dimethylamino)benzyl)-2,5-dimethylpyrazolo [1,5-a] pyridine-3-carboxamide] | < 1
COc1ccc(C2CCN(c3ccc(CNC(=O)c4c(C)nn5ccc(C)cc45)cc3)CC2)cc1 [TJ830140, N-(4-(4-(4-methoxyphenyl)piperidine-1-yl)benzyl)-2,5-dimethyl-pyrazolo [1,5-a] pyridine-3-carboxamide] | < 1
Cc1ccn2nc(C)c(C(=O)NCc3ccc(N4CCC(c5ccc(F)cc5)CC4)cc3)c2c1 [TJ830141, N-(4-(4-(4-fluorophenyl)piperidine-1-yl)benzyl)-2,5-dimethyl-pyrazolo [1,5-a] pyridine-3-carboxamide] | < 1
Cc1ccn2nc(C)c(C(=O)NCc3ccc(N4CCCCC4)cc3)c2c1 [TJ830146, 2,5-dimethyl-N-(4-(piperidine-1-yl)benzyl) pyrazolo [1,5-a] pyridine-3-carboxamide] | < 1
Cc1ccn2nc(C)c(C(=O)NCc3ccc(Oc4ccc(F)cc4)cc3)c2c1 [TJ830147, N-(4-(4-fluorophenoxy)benzyl)-2,5-dimethylpyrazolo [1,5-a] pyridine-3-carboxamide] | < 1
Cc1ccn2nc(C)c(C(=O)NCc3ccc(N4CCC(C(F)(F)F)CC4)cc3)c2c1 [TJ830149, 2,5-dimethyl-N-(4-(4-(trifluoromethyl)piperidine-1-yl)benzyl) pyrazolo [1,5-a] pyridine-3-carboxamide] | < 1
